Data from ChEMBL document CHEMBL3808297, “The synthesis and synergistic antifungal effects of chalcones against drug resistant Candida albicans” (2016).
Converted amounts (≈) assume the structure as drawn.

Assays:
Type in all cases: functional
[1] = tested on: Candida albicans; assay: Antifungal activity against fluconazole-resistant Candida albicans clinical isolate 103 by microbroth dilution method
[2] = tested on: Candida albicans; assay: Antifungal activity against fluconazole-resistant Candida albicans clinical isolate 103 by microbroth dilution method in presence of 8 ug/ml fluconazole
[3] = tested on: Candida albicans; assay: Antifungal activity against fluconazole-resistant Candida albicans clinical isolate 103 assessed as fractional inhibitory concentration index by microbroth dilution method in presence of 8 ug/ml fluconazole

Row | Structure (SMILES) | MIC80 [1] | MIC80 [2] | fractional inhibitory concentration index (FICI) [3]
1 | COc1ccc(/C=C/C(=O)c2ccccc2Cl)cc1OC | > 64 µg/mL | > 64 µg/mL | >1.06
2 | COc1ccc(C(=O)/C=C/c2ccccc2)c(O)c1 | > 64 µg/mL | 1 µg/mL | –
3 | Nc1ccccc1C(=O)/C=C/c1ccco1 | > 64 µg/mL | > 64 µg/mL | >1.06
4 | O=C(/C=C/c1ccc(CO)o1)c1ccccc1O | > 64 µg/mL | 8 µg/mL | 0.125
5 | O=C(/C=C/c1ccc2c(c1)OCO2)c1ccccc1O | > 64 µg/mL | 32 µg/mL | 0.315
6 | CN(C)c1ccc(/C=C/C(=O)c2ccccc2F)cc1 | > 64 µg/mL | 8 µg/mL | 0.125
7 | COc1cccc(O)c1C(=O)/C=C/c1ccc2c(c1)OCO2 | > 64 µg/mL | 4 µg/mL | 0.094
8 | O=C(/C=C/c1ccc(F)cc1)c1ccccc1O | > 64 µg/mL | 32 µg/mL | 0.315
9 | O=C(/C=C/c1ccccc1)c1ccc(O)cc1 [4'-HYDROXYCHALCONE] | > 64 µg/mL | > 64 µg/mL | >1.06
10 | COc1cccc(O)c1C(=O)/C=C/c1cccnc1 | > 64 µg/mL | 8 µg/mL | 0.125
11 | COc1cc(/C=C/C(=O)c2ccccc2O)ccc1O | > 64 µg/mL | > 64 µg/mL | >1.06
12 | COc1ccc(/C=C/C(=O)c2ccccc2N)cc1OC | > 64 µg/mL | 32 µg/mL | 0.315
13 | COc1cccc(O)c1C(=O)/C=C/c1cccs1 | > 64 µg/mL | 4 µg/mL | 0.094
14 | O=C(/C=C/c1cccs1)c1ccccc1O | > 64 µg/mL | > 64 µg/mL | >1.06
15 | COc1ccc(/C=C/C(=O)c2ccccc2F)cc1 | > 64 µg/mL | 64 µg/mL | 0.506
16 | COc1cccc(O)c1C(=O)/C=C/c1ccco1 | > 64 µg/mL | 4 µg/mL | 0.094
17 | COc1cccc(O)c1C(=O)/C=C/c1ccc(CO)o1 | > 64 µg/mL | 8 µg/mL | 0.125
18 | O=C(/C=C/c1ccco1)c1ccccc1O | > 64 µg/mL | 64 µg/mL | 0.506
19 | O=C(/C=C/c1ccc(C(F)(F)F)cc1)c1ccccc1O | > 64 µg/mL | 64 µg/mL | 0.506
20 | O=C(/C=C/c1ccc(Br)cc1)c1c(O)cccc1O | > 64 µg/mL | 16 µg/mL | 0.188
21 | O=C(/C=C/c1ccc2c(c1)OCO2)c1ccccc1Cl | > 64 µg/mL | 32 µg/mL | 0.315
22 | COc1ccc(/C=C/C(=O)c2ccc(O)cc2)cc1OC | > 64 µg/mL | > 64 µg/mL | >1.06
23 | O=C(/C=C/c1ccccc1)c1cc(Br)c(O)c(Br)c1O | 64 µg/mL (≈ 161 µM) | 4 µg/mL | 0.125
24 | O=c1cc(-c2ccccc2)oc2cc(O)c(O)c(O)c12 [BAICALEIN] | 32 µg/mL (≈ 118 µM) | 4 µg/mL | 0.188
25 | COc1cccc(O)c1C(=O)/C=C/c1ccccc1 | > 64 µg/mL | 16 µg/mL | 0.188
